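A five-concentration, 48-hour dose response in 96-well plates underlies each endpoint, interpolated linearly between surrounding concentrations. GI50 marks 50% less growth. The concentration for full growth arrest is given as TGI.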

This passage reports TGI and GI50 results from PubChem BioAssay (NCI).

What all share (test): NCI tumour cell line growth inhibition, 48 h
For assay [1], the system named is DLD-1 colon.
Assay [2] has as its system KM20L2 colon.
The test system of assay [3] is LXFL 529 NSCLC.
Assay [4] has as its system M19-MEL melanoma.
For assay [5], the system named is RXF-631 renal.
For assay [6], the system named is MDA-N.
Assay [7] has as its system DMS 114 small cell lung.
Assay [8] concerns XF 498 CNS.
The subject of assay [9] is SNB-78 CNS.

As for `COC(=O)C1=C(C(=O)OC)C2(c3ccccc3)OC1(c1ccccc1)c1cc3ccccc3cc12`, the TGI in [1] was 3.46 µM; in assay [2], 3.76 µM; in assay [3] it was 2.63 µM; in assay [4] it was 4.22 µM; in assay [5], 4.69 µM.
In the case of `[O]=[V]([OH])([OH])[OH]`, in assay [6], the GI50 is 94.6 µM and the TGI was over 100 µM.
With `OC(c1ccccc1Br)(c1ccccc1Br)C(F)(F)F`, the TGI is 97.6 µM in [1]; 38.2 µM in assay [7]; 52.3 µM in assay [2]; over 100 µM in assay [3]; 74 µM in [4]; 38.2 µM in assay [8].
On to `COC(=O)C(C(=O)C(=O)Nc1c(Cl)cc([N+](=O)[O-])cc1Cl)c1csc(-n2nc(C3=CCCCC3)cc2-c2ccccc2)n1` (stereo not given), for which the TGI in assay [1], in [2], in [3], in assay [4], in [5] and in [9] was over 100 µM throughout.
Take `O=C1N[C@@H]2CCCC[C@@H]2C12CCCCC2`: the TGI in assay [1], in assay [2], in [3], in [4], in assay [5] and in [9] was over 100 µM each time. In assay [8], the TGI is over 100 µM.
Consider `CCOC(=O)C1(C)CCC(C(C(=O)O)C(=O)O)CC1=O` (stereo not given), for which the TGI in assay [1], in [7], in assay [2], in [3], in [4] and in assay [5] was over 100 µM in each case. Also, the TGI in assay [9] was over 100 µM.
Regarding `COc1ccc2ccccc2c1C1=NC(C)(C)CO1`, the TGI in assay [1], in assay [2], in [3], in [4], in assay [5] and in [8] was over 100 µM each time.
As to `CCCCCCCCCCCC[C@@H](O)[C@H]1CC[C@H]([C@H](O)CC[C@H](O)[C@@H]2CC[C@@H](CCCCCCCC3=C[C@H](C)OC3=O)O2)O1`, in assay [6], the GI50 is over 50 µM and the TGI is over 50 µM.
For the compound `CC(=O)[CH-]C(=O)c1ccccc1.[C-]#[O+].[C-]#[O+].[Ir]`, in [1], the GI50 was over 100 µM and the TGI was over 100 µM. For the same compound, in [4], the GI50 is over 100 µM and the TGI was over 100 µM.
As for `COc1ccc2c(C(=O)O)cc3ccccc3c2c1OC`, the TGI is over 100 µM in assay [1]; 38 µM in assay [7]; 58.1 µM in [2]; 30.9 µM in assay [3]; 61 µM in [4]; 33.4 µM in [9]. Moreover, the TGI in assay [8] stood at 29.2 µM.
For `COc1ccc(/C=C2\C(=O)N(NC(C)=O)c3ccccc32)cc1`, the TGI in [1], in assay [7], in [2], in [4], in assay [5] and in assay [9] was over 100 µM each time. The same compound showed a TGI in assay [8] of over 100 µM.
Turning to `CC(=O)OCC(=O)[C@@]1(O)CC[C@H]2[C@@H]3C[C@H](C)C4=CC(=O)C=C[C@]4(C)[C@@]3(F)[C@@H](O)C[C@@]21C`, the TGI in assay [1], in assay [7], in assay [2], in [4], in assay [5] and in [9] was over 100 µM throughout. For the same compound, the TGI in assay [8] was over 100 µM.
For `O=C(NCCc1ccccc1)C1C(=O)C(=O)N(CCc2ccccc2)C1=O` (stereo not given), the TGI in [1], in assay [2], in assay [3], in assay [4], in assay [5] and in assay [9] was over 100 µM in each case. In assay [8], this compound had a TGI of over 100 µM.
As to `c1ccc(C(c2ccccc2)c2ccccn2)cc1`, the TGI in assay [1], in [7], in assay [2], in assay [4], in assay [5] and in [9] was over 100 µM in each case. The TGI in assay [8] is over 100 µM.
For `O=C(c1ccccc1)[C@H]1Nc2ccc(Cl)cc2[C@H]2CCC[C@@H]12`, the TGI in [1] was over 100 µM; in [7], over 100 µM; in assay [2], over 100 µM; in assay [3] it was 64.9 µM; in assay [4], over 100 µM; in assay [5], over 100 µM. Also, the TGI was over 100 µM in [9] and 54.2 µM in assay [8].
For `O=C1C2C3C=CC(C2C(=O)N1CO)C1C2C(=O)N(CO)C(=O)C2C31` (stereo not given), the TGI in [1] was over 73.7 µM; in assay [7], over 58.6 µM; in assay [2], over 31.6 µM; in assay [3], over 100 µM; in assay [4], over 100 µM; in assay [5] it was over 100 µM. In addition, the TGI in assay [9] and in [8] was over 100 µM in each case.
`CC(=O)Oc1c(C(=O)[O-])cc(C(C)C)cc1C(C)C.CC(=O)Oc1c(C(=O)[O-])cc(C(C)C)cc1C(C)C.CC(=O)Oc1c(C(=O)[O-])cc(C(C)C)cc1C(C)C.CC(=O)Oc1c(C(=O)[O-])cc(C(C)C)cc1C(C)C.[Cu+2].[Cu+2]`: in assay [6], the GI50 was 18.8 µM and the TGI amounted to 33.4 µM.
On to `COc1cc(OC)c(OC)cc1/C=C/c1nc2ccccc2s1`, for which, in assay [6], the TGI was over 100 µM.
`Cc1ccc(S(=O)(=O)NCCCCC(N)C(=O)O)cc1` (stereo not given): in [6], the TGI is over 100 µM.
